Experimental data as given in patent publication US20210108180A1, “ELECTROCONDUCTIVE DECELLULARIZED EXTRACELLULAR MATRIX COMPOSITIONS FOR PREPARATION OF ENGINEERED TISSUES AND RELATED METHODS” (University of Washington, priority 2019, published 2021).
Where two headings read alike, the source gives them in different places.

Legend:
[1] = test system: cardiac tissues bioprinted using dECM-rGO bioink (hiPSC-derived cardiomyocytes and HS27A stromal cells); assay: Cisapride cardiotoxicity dose response, FluoVolt imaging, tissues printed with dECM-rGO bioink; assay type: cell-based; conditions: Homo sapiens, HS-27A
Procedure: (§1) Tissues and support structures were bioprinted using a commercially available dual-extruder pneumatic bioprinter (Allevi BioBot 1). Five pairs of polycaprolactone (PCL) posts 1 mm in diameter, 5 mm tall, and 10 mm apart were printed in each well of a standard 6-well plate. An approximately 2 mm thick layer of NOA 83H resin (Norland Optical Adhesives) was then deposited onto the bottom of each well and cured by a 30 min exposure to UV light. Plates containing anchored posts were then sterilized by immersion in 70% v/v ethanol and subsequent UV light exposure. Sacrificial wells 12 mm×5 mm×1 mm (length×width×depth) were then printed around each post pair using 40% w/v Pluronic F-127, followed by approximately 50 μL of cell-laden hydrogel bioinks with the same cell densities as used in the EHT platform (20×10^6 hiPSC-derived cardiomyocytes/mL and 5×10^6 HS27A stromal cells/mL). Completed plates were then incubated at 37° C. and 5% CO2 for approximately 60 min, after which 5 mL of RPMI/B-27 with insulin (supplemented with Y-27632 dihydrochloride ROCK inhibitor and 1% penicillin/streptomycin) was added to each well. After 24 hrs, the media was replaced with fresh RPMI/B-27 with insulin and media changes were conducted every other day until tissues were used for drug screening. Exemplary cardiac tissues were bioprinted using dECM and dECM-rGO bioinks disclosed herein and cultured for 14 and 35 days. At these time points, tissues were washed with warm PBS before being incubated in medium containing a 1000X dilution of stock FluoVolt for 1 hr at 37° C., after which tissues were washed twice with warm Tyrode's buffer and incubated in Tyrode's containing 0.01, 0.1, 1, 5, 10, 50, 100, and 1000 nM cisapride (Sigma-Aldrich) dissolved in dimethyl sulfoxide (DMSO) for 45 mins. A group of tissues were also incubated in Tyrode's containing no cisapride, but an equivalent volume of DMSO (1 μL DMSO/mL Tyrode's). Functional response of these tissues to administered drug was assessed using FluoVolt dye in conjunction with live-tissue imaging as described above. Change in beat interval (ABI) was determined by measuring that duration of elapsed time between individual beats (the beat interval) and calculating the difference in this interval from one beat to the next. APD90 values were calculated as described above. Best-fit dose response curves were calculated using GraphPad Prism software. Drug concentration values were first transformed to a log scale and APD90 or ABI values were normalized such that the lowest value was set at 0% and the largest value at 100%. Finally, the normalized data was fit to a non-linear dose response curve using a least squares fit.

[2] = test system: cardiac tissues bioprinted using dECM bioink (hiPSC-derived cardiomyocytes and HS27A stromal cells); assay: Cisapride cardiotoxicity dose response, FluoVolt imaging, tissues printed with dECM bioink; assay type: cell-based; conditions: Homo sapiens, HS-27A
Procedure: as §1

[3] = reported ETPC range; cited from earlier work
[4] = 336 h, Day 14 of culture, change in beat interval, read-out: IC50 (ΔBI)
[5] = Day 35 of culture, change in beat interval, read-out: IC50 (ΔBI)
[6] = Day 35 of culture, read-out: IC50 (APD90)

COc1cc(N)c(Cl)cc1C(=O)NC1CCN(CCCOc2ccc(F)cc2)CC1OC (stereo not drawn) [cisapride]
IC50 [1, 4]: 8.6 ± 1.2 nM | IC50 ([1]; Day 14 of culture, 45 min cisapride, read-out: IC50 (APD90)): 2.5 ± 1.3 nM | IC50 [1, 5]: 3.1 ± 1.3 nM | IC50 [1, 6]: 1.8 ± 1.4 nM | IC50 [2, 4]: 73.4 ± 1.4 nM | IC50 ([2]; 336 h, Day 14 of culture, read-out: IC50 (APD90)): 61.8 ± 1.4 nM | IC50 [2, 5]: 7.3 ± 1.2 nM | IC50 [2, 6]: 2 ± 1.3 nM | effective therapeutic plasma concentration (ETPC) [3]: 2.6 to 4.9 nM
